In the assay the target is T1, GLP-1R (Homo sapiens, UniProt P43220).
T1 construct: host or cells: CRE-bla CHO-K1
T1 sequence (P43220 24-463): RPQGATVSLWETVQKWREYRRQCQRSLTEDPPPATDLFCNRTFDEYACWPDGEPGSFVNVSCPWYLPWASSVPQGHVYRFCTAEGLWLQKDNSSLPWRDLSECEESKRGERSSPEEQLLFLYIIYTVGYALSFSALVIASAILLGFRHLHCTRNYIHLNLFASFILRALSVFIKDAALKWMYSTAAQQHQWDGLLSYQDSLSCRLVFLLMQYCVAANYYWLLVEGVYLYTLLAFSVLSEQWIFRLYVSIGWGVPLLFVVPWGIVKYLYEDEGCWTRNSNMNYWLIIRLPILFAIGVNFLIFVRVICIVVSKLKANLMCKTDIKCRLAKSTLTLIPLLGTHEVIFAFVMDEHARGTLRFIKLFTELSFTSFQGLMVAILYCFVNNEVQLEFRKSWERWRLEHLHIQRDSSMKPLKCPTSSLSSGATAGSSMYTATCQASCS
T1 sequence (P01275 100-127 partner limits assumed): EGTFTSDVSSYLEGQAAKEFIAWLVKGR
Description: EC20 GLP-1(9-36) PAM cAMP assay: dose response of compound in the presence of fixed concentration of GLP-1(9-36). It is filed as cell-based. Particulars: GLP-1R CRE-bla CHO-K1 cells, compound dose response in presence of fixed concentration of GLP-1(9-36). The procedure, abridged:
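Positive allosteric modulation read as cAMP rise: 12-point compound titration combined with a fixed EC20 level of GLP-1(9-36) on GLP-1R CHO-K1 cells, IBMX present, 30 min at 37 °C. Luminescent HitHunter signal converted to cAMP; nonlinear fit gave EC50 and Emax.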
Background: Changes in cAMP serve as a functional read-out for many G protein-coupled receptors.
The term EC50 denotes the concentration that produces a half-maximal response. As to `CCCCCCCOc1ccc(-c2cnc(-c3ccc(C[C@H](NS(=O)(=O)c4ccc(OC(C)C)cc4)C(=O)O)cc3)nc2)cc1` [Compound 189], the 50% effective concentration (EC50) was in the range of 800 to 2500 nM.

As to `CCCCCCCOc1ccc(-c2cnc(-c3ccc(C[C@H](NS(=O)(=O)c4ccc(C(F)(F)F)cc4)C(=O)O)cc3)nc2)cc1` [Compound 190], the EC50 lay within 2500 to 5000 nM.

Turning to `CCCCCCCOc1ccc(-c2cnc(-c3ccc(C[C@H](NC(=O)c4ccc(C(C)(C)C)s4)C(=O)O)cc3)nc2)cc1` [Compound 192, (S)-2-(5-(tert-butyl)thiophene-2-carboxamido)-3-(4-(5-(4-(heptyloxy)phenyl)-pyrimidin-2-yl)phenyl)propanoic acid], the half-maximal effective concentration (EC50) was less than 800 nM.

Take `CCCCCCCOc1ccc(-c2cnc(-c3ccc(C[C@@H](NC(=O)c4ccc(C(C)(C)C)s4)C(=O)O)cc3)nc2)cc1` [Compound 193]: the concentration giving a half-maximal response (EC50) lay within 800 to 2500 nM.

As to `CC(C)(C)c1ccc(C(=O)N[C@@H](Cc2ccc(-c3ncc(-c4ccc(N5CCCCC5)cc4)cn3)cc2)C(=O)O)cc1` [Compound 194], the EC50 was in the range of 800 to 2500 nM.

`CC(C)c1ccc(-c2cnc(-c3ccc(C[C@H](NC(=O)c4ccc(C(C)(C)C)cc4)C(=O)O)cc3)nc2)cc1` [Compound 195]: the 50% effective concentration (EC50) lay within 800 to 2500 nM.

As for `CC(C)(C)c1ccc(C(=O)N[C@@H](Cc2ccc(-c3ncc(-c4ccccc4)cn3)cc2)C(=O)O)cc1` [Compound 196], the half-maximal effective concentration (EC50) lay in the range of 2500 to 5000 nM.

As to `Cn1ccc2c(-c3cnc(-c4ccc(C[C@H](NC(=O)c5ccc(C(C)(C)C)cc5)C(=O)O)cc4)nc3)cccc21` [Compound 197], the EC50 lay in the range of 2500 to 5000 nM.

For the molecule `COc1ccc(-c2cnc(-c3ccc(C[C@H](NC(=O)c4ccc(C(C)(C)C)cc4)C(=O)O)cc3)nc2)cc1` [Compound 198], the EC50 was in the range of 5000 to 10000 nM.

Turning to `CC(C)(C)c1ccc(C(=O)N[C@@H](Cc2ccc(-c3ncc(-c4ccc(C(C)(C)C)cc4)cn3)cc2)C(=O)O)cc1` [Compound 199], the EC50 lay within 800 to 2500 nM.

As for `CC(C)Oc1ccc(-c2cnc(-c3ccc(C[C@H](NC(=O)c4ccc(C(C)(C)C)cc4)C(=O)O)cc3)nc2)cc1` [Compound 200], the EC50 was 2500 to 5000 nM.

Consider `CN(C)c1ccc(-c2cnc(-c3ccc(C[C@H](NC(=O)c4ccc(C(C)(C)C)cc4)C(=O)O)cc3)nc2)cc1` [Compound 201], for which the 50% effective concentration (EC50) lay in the range of 2500 to 5000 nM.

Regarding `CN(C)c1cccc(-c2cnc(-c3ccc(C[C@H](NC(=O)c4ccc(C(C)(C)C)cc4)C(=O)O)cc3)nc2)c1` [Compound 202], the EC50 lay in the range of 5000 to 10000 nM.

Regarding `Cc1ccc(-c2cnc(-c3ccc(C[C@H](NC(=O)c4ccc(C(C)(C)C)cc4)C(=O)O)cc3)nc2)cc1` [Compound 203], the EC50 lay within 5000 to 10000 nM.

Regarding `CC(C)(C)c1ccc(C(=O)N[C@@H](Cc2ccc(-c3ncc(-c4cccc(C(C)(C)C)c4)cn3)cc2)C(=O)O)cc1` [Compound 204], the EC50 was in the range of 2500 to 5000 nM.

`CC(C)(C)c1ccc(C(=O)N[C@@H](Cc2ccc(-c3ncc(-c4ccc(-c5ccccc5)cc4)cn3)cc2)C(=O)O)cc1` [Compound 205]: the EC50 was 800 to 2500 nM.

With `CC(C)(C)c1ccc(C(=O)N[C@@H](Cc2ccc(-c3ncc(-c4ccc(F)cc4)cn3)cc2)C(=O)O)cc1` [Compound 206], the concentration giving a half-maximal response (EC50) lay within 2500 to 5000 nM.

Consider `CC(C)(C)c1ccc(C(=O)N[C@@H](Cc2ccc(-c3ncc(-c4cccc(F)c4)cn3)cc2)C(=O)O)cc1` [Compound 207], for which the EC50 fell in the range of 2500 to 5000 nM.

Regarding `CC(C)(C)c1ccc(C(=O)N[C@@H](Cc2ccc(-c3ncc(-c4ccc(F)cc4F)cn3)cc2)C(=O)O)cc1` [Compound 208], the half-maximal effective concentration (EC50) is 2500 to 5000 nM.

`CC(C)(C)c1ccc(C(=O)N[C@@H](Cc2ccc(-c3ncc(-c4ccc(C(F)(F)F)cc4)cn3)cc2)C(=O)O)cc1` [Compound 209]: the EC50 is 800 to 2500 nM.

For `CC(C)(C)c1ccc(C(=O)N[C@@H](Cc2ccc(-c3ncc(-c4cccc(C(F)(F)F)c4)cn3)cc2)C(=O)O)cc1` [Compound 210], the EC50 lay in the range of 2500 to 5000 nM.

With `CC(C)(C)c1ccc(C(=O)N[C@@H](Cc2ccc(-c3ncc(-c4ccc(Cl)cc4)cn3)cc2)C(=O)O)cc1` [Compound 211], the EC50 lay within 5000 to 10000 nM.

Turning to `CC(C)(C)c1ccc(C(=O)N[C@@H](Cc2ccc(-c3ncc(-c4cccc(Cl)c4)cn3)cc2)C(=O)O)cc1` [Compound 212], the concentration for a half-maximal effect (EC50) fell in the range of 5000 to 10000 nM.

For `CC(C)(C)c1ccc(C(=O)N[C@@H](Cc2ccc(-c3ncc(-c4ccc(Cl)c(Cl)c4)cn3)cc2)C(=O)O)cc1` [Compound 213], the half-maximal effective concentration (EC50) was in the range of 2500 to 5000 nM.

Consider `COc1ccc(-c2cnc(-c3ccc(C[C@H](NC(=O)c4ccc(C(C)(C)C)cc4)C(=O)O)cc3)nc2)cc1OC` [Compound 214], for which the half-maximal effective concentration (EC50) is 2500 to 5000 nM.

In the case of `COc1cccc(-c2cnc(-c3ccc(C[C@H](NC(=O)c4ccc(C(C)(C)C)cc4)C(=O)O)cc3)nc2)c1` [Compound 215], the EC50 is 2500 to 5000 nM.

For `CC(C)(C)c1ccc(C(=O)N[C@@H](Cc2ccc(-c3ncc(-c4cccc(N5CCCCC5)c4)cn3)cc2)C(=O)O)cc1` [Compound 216], the 50% effective concentration (EC50) lay within 2500 to 5000 nM.

For the molecule `Cc1cccc(-c2cnc(-c3ccc(C[C@H](NC(=O)c4ccc(C(C)(C)C)cc4)C(=O)O)cc3)nc2)c1` [Compound 217], the EC50 fell in the range of 5000 to 10000 nM.

In the case of `CC(C)(C)c1ccc(C(=O)N[C@@H](Cc2ccc(-c3ncc(-c4cccc(-c5ccccc5)c4)cn3)cc2)C(=O)O)cc1` [Compound 218], the EC50 lay within 2500 to 5000 nM.

As to `CCCCCCCOc1cccc(-c2cnc(-c3ccc(C[C@H](NC(=O)c4ccc(C(C)(C)C)cc4)C(=O)O)cc3)nc2)c1` [Compound 219], the EC50 is 800 to 2500 nM.

Regarding `CCCCCCCOc1ccccc1-c1cnc(-c2ccc(C[C@H](NC(=O)c3ccc(C(C)(C)C)cc3)C(=O)O)cc2)nc1` [Compound 220], the 50% effective concentration (EC50) was 2500 to 5000 nM.

Regarding `CCOc1ccc(-c2cnc(-c3ccc(C[C@H](NC(=O)c4ccc(C(C)(C)C)cc4)C(=O)O)cc3)nc2)cc1` [Compound 221], the concentration giving a half-maximal response (EC50) fell in the range of 2500 to 5000 nM.

Take `CCCOc1ccc(-c2cnc(-c3ccc(C[C@H](NC(=O)c4ccc(C(C)(C)C)cc4)C(=O)O)cc3)nc2)cc1` [Compound 222]: the EC50 is 800 to 2500 nM.

With `CCCCOc1ccc(-c2cnc(-c3ccc(C[C@H](NC(=O)c4ccc(C(C)(C)C)cc4)C(=O)O)cc3)nc2)cc1` [Compound 223], the concentration giving a half-maximal response (EC50) was in the range of 800 to 2500 nM.

In the case of `CCCCCOc1ccc(-c2cnc(-c3ccc(C[C@H](NC(=O)c4ccc(C(C)(C)C)cc4)C(=O)O)cc3)nc2)cc1` [Compound 224], the concentration giving a half-maximal response (EC50) lay within 800 to 2500 nM.

`CCCCCCOc1ccc(-c2cnc(-c3ccc(C[C@H](NC(=O)c4ccc(C(C)(C)C)cc4)C(=O)O)cc3)nc2)cc1` [Compound 225, (S)-2-(4-(tert-butyl)benzamido)-3-(4-(5-(4-(hexyloxy)phenyl)pyrimidin-2-yl)phenyl)propanoic acid]: the EC50 is less than 800 nM.

Regarding `CC(C)(C)c1ccc(C(=O)N[C@@H](Cc2ccc(-c3ncc(-c4ccc5ccccc5c4)cn3)cc2)C(=O)O)cc1` [Compound 226], the EC50 lay in the range of 800 to 2500 nM.

With `Cc1ccc(-c2cnc(-c3ccc(C[C@H](NC(=O)c4ccc(C(C)(C)C)cc4)C(=O)O)cc3)nc2)cc1C` [Compound 227], the EC50 fell in the range of 2500 to 5000 nM.

For `CCCc1ccc(-c2cnc(-c3ccc(C[C@H](NC(=O)c4ccc(C(C)(C)C)cc4)C(=O)O)cc3)nc2)cc1` [Compound 228], the 50% effective concentration (EC50) is 800 to 2500 nM.

For `Cc1ccc(-c2ccc(-c3cnc(-c4ccc(C[C@H](NC(=O)c5ccc(C(C)(C)C)cc5)C(=O)O)cc4)nc3)cc2)cc1` [Compound 229], the EC50 was in the range of 800 to 2500 nM.

For `Cc1cccc(-c2ccc(-c3cnc(-c4ccc(C[C@H](NC(=O)c5ccc(C(C)(C)C)cc5)C(=O)O)cc4)nc3)cc2)c1` [Compound 230], the EC50 lay in the range of 800 to 2500 nM.

As to `CC(C)(C)c1ccc(C(=O)N[C@@H](Cc2ccc(-c3ncc(-c4ccc(COc5ccccc5)cc4)cn3)cc2)C(=O)O)cc1` [Compound 231], the EC50 was in the range of 5000 to 10000 nM.

As to `Cc1cc(-c2cnc(-c3ccc(C[C@H](NC(=O)c4ccc(C(C)(C)C)cc4)C(=O)O)cc3)nc2)ccc1N(C)C` [Compound 232], the EC50 fell in the range of 800 to 2500 nM.

For the molecule `CNc1ccc(-c2cnc(-c3ccc(C[C@H](NC(=O)c4ccc(C(C)(C)C)cc4)C(=O)O)cc3)nc2)cc1` [Compound 233], the 50% effective concentration (EC50) is 2500 to 5000 nM.

Consider `CNc1cccc(-c2cnc(-c3ccc(C[C@H](NC(=O)c4ccc(C(C)(C)C)cc4)C(=O)O)cc3)nc2)c1` [Compound 234], for which the EC50 lay within 5000 to 10000 nM.

Consider `CC(C)Nc1ccc(-c2cnc(-c3ccc(C[C@H](NC(=O)c4ccc(C(C)(C)C)cc4)C(=O)O)cc3)nc2)cc1` [Compound 235], for which the 50% effective concentration (EC50) lay within 2500 to 5000 nM.

As to `CC(C)(C)c1ccc(C(=O)N[C@@H](Cc2ccc(-c3ncc(-c4ccc5c(c4)CCCN5)cn3)cc2)C(=O)O)cc1` [Compound 236], the EC50 lay in the range of 5000 to 10000 nM.

Regarding `CCCCOc1ccc(-c2cnc(-c3ccc(C[C@H](NC(=O)c4ccc(C(C)(C)C)s4)C(=O)O)cc3)nc2)cc1` [Compound 237], the EC50 lay within 800 to 2500 nM.

With `CCCCCOc1ccc(-c2cnc(-c3ccc(C[C@H](NC(=O)c4ccc(C(C)(C)C)s4)C(=O)O)cc3)nc2)cc1` [Compound 238], the EC50 was 800 to 2500 nM.

In the case of `CCCCCCOc1ccc(-c2cnc(-c3ccc(C[C@H](NC(=O)c4ccc(C(C)(C)C)s4)C(=O)O)cc3)nc2)cc1` [Compound 239], the EC50 was in the range of 800 to 2500 nM.

In the case of `CC(C)(C)c1ccc(C(=O)N[C@@H](Cc2ccc(-c3ncc(-c4ccc(C(F)(F)F)cc4)cn3)cc2)C(=O)O)s1` [Compound 240], the concentration for a half-maximal effect (EC50) is 2500 to 5000 nM.

On to `CC(C)Oc1ccc(-c2cnc(-c3ccc(C[C@H](NC(=O)c4ccc(C(C)(C)C)s4)C(=O)O)cc3)nc2)cc1` [Compound 241], for which the EC50 fell in the range of 800 to 2500 nM.

Consider `CC(C)c1ccc(-c2cnc(-c3ccc(C[C@H](NC(=O)c4ccc(C(C)(C)C)s4)C(=O)O)cc3)nc2)cc1` [Compound 242], for which the EC50 is 800 to 2500 nM.

As for `CC(C)Cc1ccc(-c2cnc(-c3ccc(C[C@H](NC(=O)c4ccc(C(C)(C)C)s4)C(=O)O)cc3)nc2)cc1` [Compound 243], the EC50 fell in the range of 800 to 2500 nM.

Take `CC(C)(C)c1ccc(C(=O)N[C@@H](Cc2ccc(-c3ncc(-c4ccc(OC5CC5)cc4)cn3)cc2)C(=O)O)s1` [Compound 244]: the EC50 lay in the range of 2500 to 5000 nM.

Values taken from patent US8778923B2, “GLP-1 receptor modulators” (Receptos, Inc., priority 2011, dated 2014).
